Results taken from US6403605B1, “Methods for the normalization of sexual response and amelioration of long term genital tissue degradation” (Queen's University at Kingston, priority 1998, dated 2002).

Experiments:
female rats = test: Studies with female rats: sexual arousal behaviors; format: in vivo, rat; conditions: female rats treated with combination of apomorphine and low doses of testosterone
Description: When co-administration of an androgen is utilized in this method of the invention, the androgen is given is doses sufficient to produce plasma concentrations of about 1 nmol/L to 200 nmol/L.

[1] = Pharmacokinetic evaluation of apomorphine (FIG. 1, mean plasma concentrations after sub-cutaneous and sublingual doses)
[2] = system: patients diagnosed with male erectile dysfunction with no major organic component; test: Multi-center, double-blind, randomized, placebo-controlled study: duration of erection and time to erection; format: in vivo, human; conditions: for Duration of Erection, Difference in Means: all attempts; for Time to Erection, Kaplan-Meier Median: all attempts (60 minutes if no erection); for Time to Erection, Kaplan-Meier Estimation of Median Time to Erection (Treatment Means): attempts when erection occurred, first eight attempts
Method: A multi-center, double-blind, randomized, placebo-controlled, three-armed study was conducted on 370 patients diagnosed with male erectile dysfunction with no major organic component. For each sequence, patients received placebo in one of the treatment periods, and a dose (2 mg, 4 mg, or 6 mg) of apomorphine in the other treatment period.
During treatment periods of the study, patients and their sexual partners were instructed to attempt intercourse a minimum of twice weekly. Each time the study drug was taken, a questionnaire was completed by the patient and by the partner and mailed to the study sponsor. The questionnaire recorded the date and time the study drug was taken, an evaluation of the erection, whether or not sexual intercourse had occurred, and satisfaction associated with each attempt. The patient also completed a diary which recorded the latency and duration of erections associated with the use of the study drug and antiemetic and concomitant medication usage and any adverse effects. If an erection occurred after administration to the patient of the study drug, the duration of erection and time-to-erection were recorded in the patient diary.
The data in Table 2 also indicate a dose-dependent, statistically significant difference of duration of erection, with a difference of almost 5 minutes between patients taking the 6 mg dose and those receiving placebo.
In those cases where no erection was achieved, a value of 60 minutes time-to-erection was used in the statistical analysis. The data in Table 3 show differences in latency periods between patients receiving apomorphine and those receiving placebo, but the differences probably reflect the inclusion in the data of 60 minute values for those cases in which no erection was achieved.

Compound: CN1CCc2cccc3c2[C@H]1Cc1ccc(O)c(O)c1-3 [Apomorphine, (R)-5,6,6a,7-tetrahydro-6-methyl-(4H)-dibenzo[de,g]quinoline-10,11-diol]
- behaviors associated with sexual arousal (female rats): exhibited lordosis, genital grooming and other behaviors typically associated with sexual arousal
- fraction of maximum blood serum levels reached ([1]; 12 minutes following buccal administration): one-fifth to one-fourth
- plasma apomorphine levels sufficient to cause a therapeutic effect ([1]; interpolation of plasma curves for 2, 4, 6 mg up to about 20 minutes after administration): less than 0.25 ng/mL
- time to maximum plasma concentrations ([1]; sub-lingual administration (formulation used in Tables 1-4)): about 60 minutes
- Duration of Erection, Difference in Means ([2]; 2 mg apomorphine vs placebo): 1.936 min
- Duration of Erection, Difference in Mean ([2]; 2 mg apomorphine vs placebo, only attempts where erection was achieved): 1.811 min
- Duration of Erection, Mean ([2]; 2 mg apomorphine, sublingual, all attempts (zero minutes if no erection)): 5.020 min
- Time to Erection, Kaplan-Meier Median ([2]; 2 mg apomorphine): 42.17 min
- Time to Erection, Kaplan-Meier Estimation of Median Time to Erection (Treatment Means) ([2]; 2 mg apomorphine): 11.33 min
- Duration of Erection, Mean ([2]; 2 mg apomorphine, only attempts where erection was achieved): 10.82 min
- Duration of Erection, Difference in Means ([2]; 4 mg apomorphine vs placebo): 3.578 min
- Duration of Erection, Difference in Mean ([2]; 4 mg apomorphine vs placebo, only attempts where erection was achieved): 3.458 min
- Duration of Erection, Mean ([2]; 4 mg apomorphine, sublingual, all attempts (zero minutes if no erection)): 6.903 min
- Time to Erection, Kaplan-Meier Median ([2]; 4 mg apomorphine): 36.00 min
- Time to Erection, Kaplan-Meier Estimation of Median Time to Erection (Treatment Means) ([2]; 4 mg apomorphine): 12.61 min
- Duration of Erection, Mean ([2]; 4 mg apomorphine, only attempts where erection was achieved): 12.49 min
- Duration of Erection, Difference in Means ([2]; 6 mg apomorphine vs placebo): 5.138 min
- Duration of Erection, Difference in Mean ([2]; 6 mg apomorphine vs placebo, only attempts where erection was achieved): 4.925 min
- Duration of Erection, Difference in Mean ([2]; 6 mg apomorphine vs placebo, only attempts where erection was achieved, listed as apomorphine): ~5 min
- Duration of Erection, Mean ([2]; 6 mg apomorphine, sublingual, all attempts (zero minutes if no erection)): 8.393 min
- Time to Erection, Kaplan-Meier Median ([2]; 6 mg apomorphine): 31.33 min
- Time to Erection, Kaplan-Meier Estimation of Median Time to Erection (Treatment Means) ([2]; 6 mg apomorphine): 12.82 min
- Duration of Erection, Mean ([2]; 6 mg apomorphine, only attempts where erection was achieved): 13.96 min
- difference in median time-to-erection between drug and placebo ([2]; attempts successful in achieving an erection): no statistically significant difference
- effect on duration of erection compared to placebo ([2]; doses tested (2, 4, 6 mg)): significant increase in the duration of erection
